In publication PMC9090415, “Discovery of small molecule inhibitors of Plasmodium falciparum apicoplast DNA polymerase” (Journal of Enzyme Inhibition and Medicinal Chemistry, 2022):

Target: P. falciparum apicoplast DNA polymerase (Pf-apPOL) (Plasmodium falciparum, UniProt Q8ILY1)
Assay: Fluorescence-based high-throughput DNA polymerase assay (molecular beacon), primary screen and dose-response;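 as to % inhibition ApPOL 90': test concentration in µM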;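 as to % inhibition apPOL 180': test concentration in µM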
Type: biochemical
In short: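 Single-point screening used 10 µM compound with 20 nM polymerase, 20 nM hairpin substrate and 6 µM dNTPs for 90 min at 25 °C. Confirmatory titrations (2.5–80 µM) followed fluorescence at three times, and IC50 was derived from a fit including a cooperativity term n.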

Chain of P. falciparum apicoplast DNA polymerase (Pf-apPOL) (Q8ILY1 entry or part of it): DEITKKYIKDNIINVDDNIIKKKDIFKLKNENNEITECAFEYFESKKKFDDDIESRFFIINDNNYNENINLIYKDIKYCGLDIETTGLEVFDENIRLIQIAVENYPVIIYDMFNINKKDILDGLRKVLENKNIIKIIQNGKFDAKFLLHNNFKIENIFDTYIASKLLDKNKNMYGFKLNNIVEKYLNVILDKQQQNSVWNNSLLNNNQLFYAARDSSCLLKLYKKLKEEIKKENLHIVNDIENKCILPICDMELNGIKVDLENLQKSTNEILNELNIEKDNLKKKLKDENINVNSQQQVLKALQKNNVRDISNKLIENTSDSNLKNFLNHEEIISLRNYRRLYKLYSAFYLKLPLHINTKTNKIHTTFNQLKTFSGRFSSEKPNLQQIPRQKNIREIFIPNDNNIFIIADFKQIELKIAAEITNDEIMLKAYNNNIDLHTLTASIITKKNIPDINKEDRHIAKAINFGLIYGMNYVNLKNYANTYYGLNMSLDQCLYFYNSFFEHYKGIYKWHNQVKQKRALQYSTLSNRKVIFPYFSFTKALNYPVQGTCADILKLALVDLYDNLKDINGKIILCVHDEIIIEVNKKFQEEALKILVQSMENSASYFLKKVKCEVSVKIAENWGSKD

Cc1ncc(CSc2nc(C(C)(C)C)cs2)c(CO)c1O [KU0264007]
DNA Pol (186 hits, value of the hit list (primary screen); unit not given; 90 min, 10 µM): 70 | % inhibition Apo pol 10' (DRC-1; 10'; concentration 2.5): 0.8986% | % inhibition Apo pol 10' (DRC-1; 10'; concentration 5): 5.699% | % inhibition Apo pol 10' (DRC-1; 10'; concentration 10): 22.1813% | % inhibition Apo pol 10' (DRC-1; 10'; concentration 20): 37.8368% | % inhibition Apo pol 10' (DRC-1; 10'; concentration 40): 57.9296% | % inhibition Apo pol 10' (DRC-1; 10'; concentration 80): 69.8809% | % inhibition Apol 90' (DRC-1; 90'; concentration 2.5): -0.5136% | % inhibition Apol 90' (DRC-1; 90'; concentration 5): -0.3111% | % inhibition Apol 90' (DRC-1; 90'; concentration 10): 8.991% | % inhibition Apol 90' (DRC-1; 90'; concentration 20): 19.9803% | % inhibition Apol 90' (DRC-1; 90'; concentration 40): 38.5024% | % inhibition Apol 90' (DRC-1; 90'; concentration 80): 54.4417% | % inhibition apPOL 180' (DRC-1; 180'; concentration 2.5): -1.351% | % inhibition apPOL 180' (DRC-1; 180'; concentration 5): -5.176% | % inhibition apPOL 180' (DRC-1; 180'; concentration 10): 0.78% | % inhibition apPOL 180' (DRC-1; 180'; concentration 20): 8.562% | % inhibition apPOL 180' (DRC-1; 180'; concentration 40): 22.9628% | % inhibition apPOL 180' (DRC-1; 180'; concentration 80): 39.37% | % inhibition Apo pol 5' (DRC-2, 5', concentration 2.5): 6.56% | % inhibition Apo pol 5' (DRC-2, 5', concentration 5): 10% | % inhibition Apo pol 5' (DRC-2, 5', concentration 10): 24% | % inhibition Apo pol 5' (DRC-2, 5', concentration 20): 37% | % inhibition Apo pol 5' (DRC-2, 5', concentration 40): 45% | % inhibition Apo pol 5' (DRC-2, 5', concentration 80): 50% | % inhibition Apol 40' (DRC-2, 40', concentration 2.5): 4% | % inhibition Apol 40' (DRC-2, 40', concentration 5): 6.47% | % inhibition Apol 40' (DRC-2, 40', concentration 10): 20% | % inhibition Apol 40' (DRC-2, 40', concentration 20): 35% | % inhibition Apol 40' (DRC-2, 40', concentration 40): 47% | % inhibition Apol 40' (DRC-2, 40', concentration 80): 61% | % inhibition ApPOL 90' (DRC-2, 90', concentration 2.5): 1.8% | % inhibition ApPOL 90' (DRC-2, 90', concentration 5): 2.55% | % inhibition ApPOL 90' (DRC-2, 90', concentration 10): 14% | % inhibition ApPOL 90' (DRC-2, 90', concentration 20): 28% | % inhibition ApPOL 90' (DRC-2, 90', concentration 40): 43% | % inhibition ApPOL 90' (DRC-2, 90', concentration 80): 62% | % inhibition apPOL 180' (DRC-2, 180', concentration 2.5): -3% | % inhibition apPOL 180' (DRC-2, 180', concentration 5): -4.6% | % inhibition apPOL 180' (DRC-2, 180', concentration 10): 2.58% | % inhibition apPOL 180' (DRC-2, 180', concentration 20): 14% | % inhibition apPOL 180' (DRC-2, 180', concentration 40): 30% | % inhibition apPOL 180' (DRC-2, 180', concentration 80): 58% | % inhibition ApPOL 90' (DRC-2; 90'; concentration 10): 14% | % inhibition apPOL 180' (DRC-2; 180'; concentration 20): 14% | DNA Pol (primary screen value, 'DNA Pol' only; 90 min, 10 µM): 70

CC1=NNC(=O)C1Oc1ccc(Cl)cc1Cl (stereo not drawn) [KU0265591]
DNA Pol ('DNA Pol'; screening value, unit not given; 90 min, 10 µM): 75 | % inhibition Apo pol 10' (DRC-1; 10'; concentration 2.5): 8.365% | % inhibition Apo pol 10' (DRC-1; 10'; concentration 5): 10.5259% | % inhibition Apo pol 10' (DRC-1; 10'; concentration 10): 21.6096% | % inhibition Apo pol 10' (DRC-1; 10'; concentration 20): 39.4478% | % inhibition Apo pol 10' (DRC-1; 10'; concentration 40): 60.3328% | % inhibition Apo pol 10' (DRC-1; 10'; concentration 80): 74.8276% | % inhibition Apol 90' (DRC-1; 90'; concentration 2.5): -1.52% | % inhibition Apol 90' (DRC-1; 90'; concentration 5): -3.728% | % inhibition Apol 90' (DRC-1; 90'; concentration 10): 5.588% | % inhibition Apol 90' (DRC-1; 90'; concentration 20): 19.9514% | % inhibition Apol 90' (DRC-1; 90'; concentration 40): 37.9721% | % inhibition Apol 90' (DRC-1; 90'; concentration 80): 53.1645% | % inhibition apPOL 180' (DRC-1; 180'; concentration 2.5): -5.173% | % inhibition apPOL 180' (DRC-1; 180'; concentration 5): -9.633% | % inhibition apPOL 180' (DRC-1; 180'; concentration 10): -1.598% | % inhibition apPOL 180' (DRC-1; 180'; concentration 20): 9.166% | % inhibition apPOL 180' (DRC-1; 180'; concentration 40): 27.6068% | % inhibition apPOL 180' (DRC-1; 180'; concentration 80): 41.8944% | % inhibition Apo pol 5' (DRC-2, 5', concentration 2.5): 10% | % inhibition Apo pol 5' (DRC-2, 5', concentration 5): 12% | % inhibition Apo pol 5' (DRC-2, 5', concentration 10): 24% | % inhibition Apo pol 5' (DRC-2, 5', concentration 20): 32% | % inhibition Apo pol 5' (DRC-2, 5', concentration 40): 45% | % inhibition Apo pol 5' (DRC-2, 5', concentration 80): 52% | % inhibition Apol 40' (DRC-2, 40', concentration 2.5): 5% | % inhibition Apol 40' (DRC-2, 40', concentration 5): 4.74% | % inhibition Apol 40' (DRC-2, 40', concentration 10): 15% | % inhibition Apol 40' (DRC-2, 40', concentration 20): 26% | % inhibition Apol 40' (DRC-2, 40', concentration 40): 42% | % inhibition Apol 40' (DRC-2, 40', concentration 80): 53% | % inhibition ApPOL 90' (DRC-2, 90', concentration 2.5): 1.69% | % inhibition ApPOL 90' (DRC-2, 90', concentration 5): -0.164% | % inhibition ApPOL 90' (DRC-2, 90', concentration 10): 9% | % inhibition ApPOL 90' (DRC-2, 90', concentration 20): 20% | % inhibition ApPOL 90' (DRC-2, 90', concentration 40): 37% | % inhibition ApPOL 90' (DRC-2, 90', concentration 80): 51% | % inhibition apPOL 180' (DRC-2, 180', concentration 2.5): -3.43% | % inhibition apPOL 180' (DRC-2, 180', concentration 5): -6% | % inhibition apPOL 180' (DRC-2, 180', concentration 10): -1.09% | % inhibition apPOL 180' (DRC-2, 180', concentration 20): 9% | % inhibition apPOL 180' (DRC-2, 180', concentration 40): 26% | % inhibition apPOL 180' (DRC-2, 180', concentration 80): 42% | % inhibition ApPOL 90' (conc 10 (unit not given); 90'; DRC-2): 9% | % inhibition Apol 40' (conc 20 (unit not given); 40'; DRC-2): 26% | % inhibition apPOL 180' (conc 20 (unit not given); 180'; DRC-2): 9% | % inhibition Apol 40' (conc 40 (unit not given); 40'; DRC-2): 42% | % inhibition apPOL 180' (conc 40 (unit not given); 180'; DRC-2): 26% | % inhibition apPOL 180' (conc 80 (unit not given); 180'; DRC-2): 42% | DNA Pol (primary screen hit value, DNA Pol (186 hits); 90 min, 10 µM): 75
